Patent US6686345B2, “DNA-cleaving antitumor agents” (Research Development Foundation, priority 1998, dated 2004)
Blank lines part the entries; values can stand above or below the compound they belong to.

Key:
[1] = Stability of heterocyclic salts in methanol (CD3OD) monitored by NMR; details: solution in CD3OD monitored by NMR
Text: The stability of solutions of these salts in CD3OD can be monitored by NMR.

supercoiled plasmid DNA = assay: DNA cleavage of supercoiled plasmid DNA by aza-enediyne heterocycles (thiazolium and benzothiazolium salts); format: biochemical; details: for DNA Cleavage 1 mM: 1 mM compound; for DNA Cleavage 1 mM / DNA Cleavage 100 μM: 50 μM bp DNA, TRIS pH 8.0, 24 hrs at 37° C.; for DNA Cleavage 100 μM: 100 μM compound
Method: The DNA cleavage efficiency of aza-enediyne heterocycles is determined by incubating the azaenediynes with supercoiled plasmid DNA. The supercoiled DNA was diluted to 50 μM bp in 50 mM TRIS buffer at pH 8.0. […] DNA topoisomers were separated by electrophoresis (0.8% agarose, 1× TBE, 82V, 1 hr 10 min) and stained with ethidium bromide (0.25 μg/mL) and images were analyzed by phosphorimger.
(§1) The normalized percent cleavage of DNA is determined as: [formula]
DNA cleavage normalized for the small amount (10-25%) of nicked relaxed DNA in control samples (DMSO-only treated DNA) is reported in Table 6.

[2] = tested on: supercoiled ΦX174 plasmid DNA; assay: DNA cleavage by 2-alkynyl pyridinium triflate salts; format: biochemical, ΦX174 Phage; details: for Normalized Percent Cleavage of ΦX174 Phage (RF-1) DNA: 24 hrs at 37° C., pH 8.0; for DNA cleavage (in words): pyridinium series
Method: as §1
The DNA cleavage efficiency of these azaenediyne heterocycles was determined by incubation with aqueous solutions of supercoiled ΦX174 plasmid DNA. The supercoiled DNA was diluted to 50 μM bp in 50 mM TRIS pH 8.0. The reaction mixtures containing compound and 13% v/v DMSO-d6 were incubated for 24 hrs at 37° C. DNA topoisomers were separated by agarose gel electrophoresis (1 X TBE, 90V, 1 hr), stained with ethidium bromide (0.25 μg/mL), and the images were analyzed on a fluorimager. DNA cleavage results are reported as normalized percent cleavage in Table 7 as for the thiazolium and benzothiazolium salts in Example 8.

[3] = Thermal isomerization (aza-Bergman rearrangement) of C,N-dialkynylimine; format: physicochemical; details: slower than 5a to 7a
Text: A general synthetic route to C,N-dialkynylimines (3-aza-enediynes) 5a,b is depicted in FIG. 1. These imines are isolated as air stable yellow oils after chromatography. When a benzene solution of 5a is heated under reflux overnight, nitrile 7a is produced in 88% yield (FIG. 2). The nitrile 7a is isolated as a single stereoisomer, which is assigned the (Z)-geometry by comparison with authentic (E)-7a. Authentic (E)-7a was synthesized by the palladium-catalyzed coupling of 1-propynyltributyltin and the (E)-enol triflate of 2-cyano-2-phenylacetophenone. Heating a solution of imine 5a in benzene containing a large excess of 1,4-cyclohexadiene (1,4-chd) as a hydrogen atom trap, or in neat 1,4-chd at 150° C. for two hours affords the nitrile 7a as the only isolable product. The imine 5b contains a pendent double bond that could serve as an intramolecular trap for the putative diradical intermediate 6 (FIG. 2). We find that heating a benzene solution of 5b containing a large excess of 1,4-chd affords only the nitrile 7b in nearly quantitative yield. In none of these reactions were any products (e.g. 8 or 10) which would arise from trapping of the 2,5-ddp intermediate 6 detected.
The ^t½ for the Bergman cyclization of the corresponding (Z)-1,6-diphenylhex-3-ene-1,5-diyne to o-terphenyl is about 1000-fold slower than the rearrangement of 5a to 7a.

A549 cancer cells = assay: In vitro cancer cell cytotoxicity of pyridinium salts, A549; format: cell-based; details: Homo sapiens; A549 cells, growth inhibition
Text: (§2) The 2-ethynyl-1-prop-2-ynyl-pyridinium triflate salt has less activity in the in vitro cytotoxicity assay, perhaps due to the instability of this compound in nucleophilic solvents. The IC50 (50% Inhibition Concentration) is defined as the test compound concentration where the increase from time 0 in the number or mass of treated cells is only 50% as much as the corresponding increase in the vehicle-control at the end of experiment.

MCF-7 cancer cells = assay: In vitro cancer cell cytotoxicity of pyridinium salts, MCF-7; format: cell-based; details: Homo sapiens, MCF7; MCF-7 cells, growth inhibition
Text: as §2

Stability in MeOH (Initial Decomposition) [1]: >24 h
Structure (SMILES): C(#Cc1nccs1)c1ccccc1
DNA Cleavage 1 mM (supercoiled plasmid DNA): 1.5%

Stability in MeOH (Initial Decomposition) [1]: ˜30 min
Structure (SMILES): C#CC[n+]1c(C#Cc2ccccc2)sc2ccccc21
DNA Cleavage 100 μM (supercoiled plasmid DNA): 46% | DNA Cleavage 1 mM (supercoiled plasmid DNA): 100%

Structure (SMILES): C#CC[n+]1c(C#C[Si](C(C)C)(C(C)C)C(C)C)sc2ccccc21
DNA Cleavage 1 mM (supercoiled plasmid DNA): 0%

Structure (SMILES): C#CC[n+]1ccccc1C#Cc1ccc(OC)cc1 [drawing 123, 1-prop-2-ynyl-2[(4-methoxyphenyl)-ethynyl]-pyridinium triflate]
Normalized Percent Cleavage of ΦX174 Phage (RF-1) DNA ([2]; 1 μM): 7.5% | Normalized Percent Cleavage of ΦX174 Phage (RF-1) DNA ([2]; 10 μM): 71% | Normalized Percent Cleavage of ΦX174 Phage (RF-1) DNA ([2]; 50 μM): 97% | Normalized Percent Cleavage of ΦX174 Phage (RF-1) DNA ([2]; 100 μM): 100% | lowest concentration producing DNA cleavage ([2]; ΦX174 DNA): 1 µM | DNA cleavage (in words) ([2]; ΦX174 DNA): most potent DNA cleavage activity

t½ for the Bergman cyclization relative to rearrangement of 5a to 7a [3]: about 1000 fold
Structure (SMILES): C(#Cc1ccccc1)/C=C\C#Cc1ccccc1 [(Z)-1,6-diphenylhex-3-ene-1,5-diyne]

Structure (SMILES): C#CC[n+]1ccccc1C#Cc1ccccc1 [drawing 129]
IC50 (A549 cancer cells): 3.3 µM | IC50 (MCF-7 cancer cells): 3.1 µM

Structure (SMILES): C#CC[n+]1ccccc1C#C[Si](C(C)C)(C(C)C)C(C)C [1-prop-2-ynyl-2[(triisopropyl-silanyl)-ethynyl]-pyridinium triflate]
Normalized Percent Cleavage of ΦX174 Phage (RF-1) DNA ([2]; 1 μM): 0% | Normalized Percent Cleavage of ΦX174 Phage (RF-1) DNA ([2]; 10 μM): 8.1% | Normalized Percent Cleavage of ΦX174 Phage (RF-1) DNA ([2]; 50 μM): 49% | Normalized Percent Cleavage of ΦX174 Phage (RF-1) DNA ([2]; 100 μM): 77% | DNA cleavage (in words) ([2]; ΦX174 DNA): cleaves DNA less efficiently than all of the other 2-alkynyl substituted analogs

Stability in MeOH (Initial Decomposition) [1]: >24 h
Structure (SMILES): C#CC[n+]1cccnc1C#Cc1ccccc1
DNA Cleavage 100 μM (supercoiled plasmid DNA): 14.4% | DNA Cleavage 1 mM (supercoiled plasmid DNA): 43.3%

Structure (SMILES): C#CC[n+]1ccsc1C#Cc1ccccc1 [drawing 121]
Normalized Cleavage (%) (supercoiled plasmid DNA; Concentration 25 μM): 37.31% | Normalized Cleavage (%) (supercoiled plasmid DNA; Concentration 50 μM): 56.84% | Normalized Cleavage (%) (supercoiled plasmid DNA; Concentration 100 μM): 67.29% | Normalized Cleavage (%) (supercoiled plasmid DNA; Concentration 250 μM): 92.79%

Structure (SMILES): C#CC[n+]1ccccc1C#Cc1ccc(OC)cc1 [drawing 130]
IC50 (A549 cancer cells): 2.7 µM | IC50 (MCF-7 cancer cells): 8.7 µM

Structure (SMILES): C#CC[n+]1ccccc1C#Cc1ccc(C(F)(F)F)cc1 [drawing 124, 1-prop-2-ynyl-2[(4-trifluoromethylphenyl)-ethynyl]-pyridinium triflate]
Normalized Percent Cleavage of ΦX174 Phage (RF-1) DNA ([2]; 1 μM): 0.9% | Normalized Percent Cleavage of ΦX174 Phage (RF-1) DNA ([2]; 10 μM): 33% | Normalized Percent Cleavage of ΦX174 Phage (RF-1) DNA ([2]; 50 μM): 78% | Normalized Percent Cleavage of ΦX174 Phage (RF-1) DNA ([2]; 100 μM): 90%

Structure (SMILES): C#CC[n+]1c(C#C[Si](C)(C)C)sc2ccccc21
DNA Cleavage 1 mM (supercoiled plasmid DNA): 100%

Structure (SMILES): C#CC[n+]1ccccc1C#Cc1ccccc1 [drawing 122, 1-prop-2-ynyl-2-phenylethynyl pyridinium triflate]
Normalized Percent Cleavage of ΦX174 Phage (RF-1) DNA ([2]; 1 μM): 0.4% | Normalized Percent Cleavage of ΦX174 Phage (RF-1) DNA ([2]; 10 μM): 17% | Normalized Percent Cleavage of ΦX174 Phage (RF-1) DNA ([2]; 50 μM): 83% | Normalized Percent Cleavage of ΦX174 Phage (RF-1) DNA ([2]; 100 μM): 87%
